Experimental data taken from US6602826B1, “Heterocyclically substituted aromatic amino compounds with a herbicidal effect” (Bayer Aktiengesellschaft, priority 1997, dated 2003).

Columns and labels:
[1] = tested on: Avena fatua; experiment: Pre-emergence test; assay type: in vivo; conditions: application rates between 250 and 750 g/ha, scored after three weeks vs untreated control, 0% = no action, 100% = total destruction
Procedure: (§1) Solvent: 5 parts by weight of acetone
(§2) Emulsifier: 1 part by weight of alkylaryl polyglycol ether
(§3) To prepare a suitable preparation of active compound, 1 part by weight of active compound is mixed with the stated amount of solvent, the stated amount of emulsifier is added, and the concentrate is diluted with water to the desired concentration.
(§4) Seeds of the test plants are sown in normal soil. After approx. 24 hours, the soil is sprayed with the preparation of active compound in such a way that the desired amounts of active compound are in each case applied per unit area. The concentration of the spray mixture is chosen in such a way that the desired amounts of active compound are in each case applied in 1,000 liters of water/ha.
(§5) After three weeks, the degree of damage to the plants is scored in % damage in comparison with the development of the untreated control.

[2] = tested on: Lolium; experiment: Pre-emergence test; assay type: in vivo; conditions: application rates between 250 and 750 g/ha, scored after three weeks vs untreated control
Procedure: as §1, §2, §3, §4, §5

[3] = tested on: Solanum; experiment: Pre-emergence test; assay type: in vivo; conditions: application rates between 250 and 750 g/ha, scored after three weeks vs untreated control
Procedure: as §1, §2, §3, §4, §5

[4] = tested on: Matricaria; experiment: Pre-emergence test; assay type: in vivo; conditions: application rates between 250 and 750 g/ha, scored after three weeks vs untreated control
Procedure: as §1, §2, §3, §4, §5

[5] = tested on: Galium; experiment: Post-emergence test; assay type: in vivo; conditions: application rates of 15-750 g/ha, scored after three weeks vs untreated control
Procedure: as §1, §2, §3
(§6) Test plants which have a height of 5-15 cm are sprayed with the preparation of active compound in such a way that the desired amounts of active compound are in each case applied per unit area. The concentration of the spray mixture is chosen in such a way that the amounts of active compound desired in each case are applied in 1,000 liters of water/ha.
as §5

[6] = tested on: Abutilon; experiment: Post-emergence test; assay type: in vivo; conditions: application rates of 15-750 g/ha, scored after three weeks vs untreated control
Procedure: as §1, §2, §3, §6, §5

[7] = tested on: Sinapis; experiment: Post-emergence test; assay type: in vivo; conditions: application rates of 15-750 g/ha, scored after three weeks vs untreated control
Procedure: as §1, §2, §3, §6, §5

[8] = tested on: wheat; experiment: Pre-emergence test (crop tolerance); assay type: in vivo; conditions: application rates between 250 and 750 g/ha, scored after three weeks vs untreated control
Procedure: as §1, §2, §3, §4, §5

SMILES | melting point [°C] | degree of damage to the plants, Avena fatua [1] [%] | degree of damage to the plants, Lolium [2] [%] | degree of damage to the plants, Solanum [3] [%] | degree of damage to the plants, Matricaria [4] [%] | degree of damage to the plants, Galium [5] [%] | degree of damage to the plants, Abutilon [6] [%] | degree of damage to the plants, Sinapis [7] [%] | degree of damage to the plants, wheat (crop plant, tolerated well) [8] [%]
CC(C)(C)C(=O)Nc1ccc(Cl)cc1-n1c(=O)cc(C(F)(F)F)[nH]c1=O | 276 |  |  |  |  |  |  |  | 
Cn1c(C(F)(F)F)cc(=O)n(-c2cc(Cl)ccc2NC(=O)C(C)(C)C)c1=O | 267 |  |  |  |  |  |  |  | 
Cn1c(C(F)(F)F)cc(=O)n(-c2ccc(Cl)cc2NC(=O)C(C)(C)C)c1=O [Example 18] |  | 100 | 100 | 100 | 100 | 100 | 100 | 100 | 0
Cn1c(C(F)(F)F)cc(=O)n(-c2ccc(Cl)cc2NC(=O)C2CC2)c1=O [Example 19] |  | 100 | 100 | 100 | 100 | 100 | 100 | 100 | 0
CC(=O)Nc1cc(Cl)ccc1-n1c(=O)cc(C(F)(F)F)n(C)c1=O [Example 20] |  | 100 | 100 | 100 | 100 | 100 | 100 | 100 | 0
Cn1c(C(F)(F)F)cc(=O)n(-c2ccc(Cl)cc2NC(=O)c2ccc(Cl)cc2)c1=O [Example 23] |  | 100 | 100 | 100 | 100 | 100 | 100 | 100 | 0
CC(C)C(=O)Nc1cc(Cl)ccc1-n1c(=O)cc(C(F)(F)F)n(C)c1=O [Example 24] |  | 100 | 100 | 100 | 100 | 100 | 100 | 100 | 0
CCNC(=S)Nc1ccccc1-n1c(=O)n(C2CC2)c(=O)n1C [Example 102] |  | 100 | 100 | 100 | 100 | 100 | 100 | 100 | 0
